One block for each molecule: values may come before it. Where no end group is shown, it is not given here.
Key:
[1] = test system: HL-60 promyelocytic leukemia cells; experiment: Cytotoxicity in HL-60 cells
Text: (§1) We hypothesized that modifications designed to enhance electrostatic interactions between the peptide and C/EBPβ would increase potency. A panel of 46 rationally-designed peptides probing the molecular packing of non-leucine amino acids of the peptide antagonist with that of the C/EBPβ bZIP domain were synthesized and screened for cytotoxic activity.

[2] = Cytotoxicity in HL-60 cells
Text: as §1

[3] = molecular target: C/EBPβ (plate-bound, competitive ELISA); experiment: ELISA: 3.6 ng plate-bound C/EBPβ, ATF5 in solution
[4] = molecular target: C/EBPβ (Homo sapiens, UniProt P17676); experiment: ELISA, ATF5 binding to plate-bound C/EBPβ; conditions: 3.6 ng C/EBPβ plate-bound
Chain of C/EBPβ (P17676 whole entry, species assumed): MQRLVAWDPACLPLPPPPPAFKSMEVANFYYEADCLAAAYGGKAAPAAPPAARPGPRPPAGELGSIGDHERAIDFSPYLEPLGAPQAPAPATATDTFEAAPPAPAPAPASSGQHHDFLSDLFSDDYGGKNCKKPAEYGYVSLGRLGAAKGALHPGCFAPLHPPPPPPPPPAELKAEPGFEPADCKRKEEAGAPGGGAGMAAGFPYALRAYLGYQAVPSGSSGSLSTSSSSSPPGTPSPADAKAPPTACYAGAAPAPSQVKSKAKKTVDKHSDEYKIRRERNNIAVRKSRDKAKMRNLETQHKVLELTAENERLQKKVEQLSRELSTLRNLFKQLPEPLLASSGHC
Method: C/EBPβ (3.6 ng/well) was immobilized to a 384-well plate (Nunc MaxiSorp, ThermoSci) by overnight incubation at 4° C. Non-bound protein was removed by three washes with tris-buffered saline (TBS)+0.1% Tween (TBST), and wells were then blocked for 1 hr at 4° C. with 5% bovine serum albumin in TBS.
Plate-bound ATF5 was detected by 1-hr incubations at 4° C. of 1:1000 dilution rabbit-anti-ATF5 antibody (ab60126, Abcam) followed by 1:1000 goat-anti-rabbit IgG-HRP antibody (ab6721, Abcam), with three washes with TBST after each antibody incubation, and 50 μL TMB substrate. The reaction was stopped by addition of 25 μL 2.5M sulfuric acid, and absorbance was detected at 450 nm using a SpectraMax M3 plate reader (Molecular Devices).

Chain of C/EBPβ (plate-bound, competitive ELISA) (P17676 whole entry): as the sequence (P17676 whole entry, species assumed) above

Kd [3]: 0.001 µM
Molecule: recombinant ATF5

Kd of ATF5 association with C/EBPβ [4]: 0.001 µM
B1: ATF5: recombinant ATF5, activating transcription factor 5, binding partner of C/EBPβ (protein)
chain: MSLLATLGLELDRALLPASGLGWLVDYGKLPPAPAPLAPYEVLGGALEGGLPVGGEPLAGDGFSDWMTERVDFTALLPLEPPLPPGTLPQPSPTPPDLEAMASLLKKELEQMEDFFLDAPPLPPPSPPPLPPPPLPPAPSLPLSLPSFDLPQPPVLDTLDLLAIYCRNEAGQEEVGMPPLPPPQQPPPPSPPQPSRLAPYPHPATTRGDRKQKKRDQNKSAALRYRQRKRAEGEALEGECQGLEARNRELKERAESVEREIQYVKDLLIEVYKARSQRTRSC

Second part, the molecule before the results:

Molecule: 22-amino acid section of native ATF5 bZIP domain, LEGECQGLEARNRELKERAESV, and a 16-amino acid penetratin domain [precursor peptide]
EC50 [1]: 17.4 ± 0.5 µM

Molecule: RQIKIWFQNRRMKWKKLEGRAQGLRAELRELEERAEAV [“winner” peptide]
EC50 [2]: 5.5 ± 0.5 µM | increase in potency vs. the parent peptide ([1]; HL-60 cytotoxicity EC50): 3.2 fold

From US20230218717A1, “Administration of CEBP-Beta Antagonist and Methods of Use” (Sapience Therapeutics, Inc., priority 2020, published 2023)
